Measured values from US12508280B2, “Formulations for improving gut health” (DSM IP ASSETS B.V., priority 2018, dated 2025).

Experiments:
[1] = system: Co-cultures of Caco-2 and HT29-MTX-E12 cells; experiment: Barrier integrity, leaky gut model, apical stressor Rhamnolipids; type: cell-based; conditions: vs corresponding control; for Lucifer yellow, apical induction of leaky gut cellular model: 48 h fermentation samples; for TEER, apical induction of leaky gut cellular model: 48 h minus 0 h fermentation samples
[2] = system: Co-cultures of Caco-2 and HT29-MTX-E12 cells; experiment: Barrier integrity, leaky gut model, basolateral stressor 5% EtOH; type: cell-based; conditions: 0.2× dose, vs corresponding control; for Lucifer yellow, basolateral induction of leaky gut cellular model: 48 h fermentation samples; for TEER, basolateral induction of leaky gut cellular model: 48 h minus 0 h fermentation samples
Experimental: Since ethanol is known to have antimicrobial effects, two blanks for each type of stock solution were included. As a source of the microbial community, a freshly prepared fecal suspension from the selected donor was added to the reactors. […] All tests, except the blanks, were performed in single repetition, resulting in 40 independent incubations, as specified in Table 1. Incubation conditions of the pre-screening experiment and the final experiment were 48 h at 37° C., under shaking (90 rpm) and anaerobic conditions. […] Effluent samples were collected from each fermentation flask before (0 h fermentation) and after fermentation (48 h fermentation), sterilized by filtering through 0.22 μm filters and used for short chain fatty acids (SCFA), quantification of immunological biomarkers and in vitro analysis in cell culture systems.
Co-cultures of Caco-2 and HT29-MTX-E12 cells were used to assess the protective effect of the supernatants before (0 h) and after fermentation (48 h) for both sets of in vitro experiments above.
CaCo-2 ECACC 86010202 and HT29-MTX-E12 ECACC 12040401 cells (both from European Collection of Cell Cultures, Salisbury, UK) were both cultured at 37° C., in atmosphere of 5% CO2 in DMEM medium supplemented with 4.5 g/L D-Glucose, 4 mM L-Glutamine, 1 mM Sodium Pyruvate, 1% MEM Non-Essential Amino Acids, 50 μg/mL Gentamicin (Life Technologies Europe B.V., Zug, Switzerland) and 10% heat-inactivated FBS (Sigma-Aldrich, Buchs, Switzerland). Sub-confluent cells were trypsinized using 0.25% Trypsin/EDTA (Life Technologies Europe B.V., Zug, Switzerland) and passaged at a ratio of 1:5-1:10 twice a week. Cells between passages 55 and 85 were used for this study.
Cells were seeded at a density of 20000 cells/well in a 7:3 ratio (Caco-2:HT29-MTX-E12) in Corning HTS Transwell-24 system PET membranes, 0.4 μM pore size, cell growth area 0.33 cm2/well (Corning BV, Amsterdam, Netherlands) and cultured as described above. Media was changed every second to third day.
For both sets of in vitro experiments, the integrity of cell monolayers after the stressor test was evaluated by both TEER values and by measuring the transport of Lucifer yellow from apical to basolateral compartments (Leaky gut model). […] The inserts were rinsed twice with HBSS using a reservoir tray, 100 μl HBSS were then added to the apical site of the inserts and subsequently moved to new wells with fresh HBSS and allowed to equilibrate at 37° C. for 60 min in the incubator followed by TEER measurement to obtain baseline resistance readings. […]

[3] = system: fecal suspension from the selected donor; experiment: Intestinal batch fermentation, SCFA production (first set); type: cell-based, human; conditions: after 48 h fermentation, vs corresponding control
How it was run: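 Test ingredients were added to modified nutritional medium inoculated with fresh donor fecal suspension. Incubation ran 48 h at 37° C, 90 rpm, anaerobic, with ethanol blanks and single repeats. SCFA were sampled at 0, 6, 24 and 48 h, diethyl ether-extracted and quantified by GC-FID against a 2-methyl hexanoic acid internal standard; molar sums were taken as unbranched, branched and total SCFA.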

[4] = system: HT29 cells; experiment: HT29 cell culture, quantification of immunological biomarkers; type: cell-based; conditions: effluent from 24 h fermentation, vs corresponding control

In the case of Cc1cc2nc3c(=O)[nH]c(=O)nc-3n(C[C@H](O)[C@H](O)[C@H](O)CO)c2cc1C [Vitamin B2, riboflavin], the “Lucifer yellow, apical induction of leaky gut cellular model” value (from here on “Lucifer yellow, apical induction”) ([1]; 0.2× dose) is reported as “decrease Lucifer yellow”, the “TEER, apical induction of leaky gut cellular model” value (“TEER, apical induction” for short) ([1]; 0.2× dose) is reported as “increase TEER” and the “Lucifer yellow, basolateral induction of leaky gut cellular model” value [2] is reported as “decrease Lucifer yellow”. The “TEER, basolateral induction of leaky gut cellular model” value [2] was “increase TEER”, the butyrate production ([3]; 5× dose) was “increase butyrate production” and the “GROa-CXCL1 production by HT29 cells” value ([4]; 1× dose) was “increase GROa-CXCL1 production”. For the same molecule, the “IL-8 production by HT29 cells” value ([4]; 1× dose) was “increase IL-8 production”, the “GROa-CXCL1 production by HT29 cells” value ([4]; 5× dose) was “increase GROa-CXCL1 production” and the “IL-8 production by HT29 cells” value ([4]; 5× dose) was “increase IL-8 production”.
Vitamin E was tested, and the “TEER, apical induction” value ([1]; 0.2× dose) was “increase TEER”, the “Lucifer yellow, apical induction” value ([1]; 1× dose) was “decrease Lucifer yellow” and the “TEER, apical induction” value ([1]; 1× dose) was “increase TEER”. The “Lucifer yellow, apical induction” value ([1]; 5× dose) was “decrease Lucifer yellow”, the “TEER, apical induction” value ([1]; 5× dose) was “increase TEER” and the “Lucifer yellow, basolateral induction of leaky gut cellular model” value [2] was “decrease Lucifer yellow”. The “TEER, basolateral induction of leaky gut cellular model” value [2] was “increase TEER”, the acetate production ([3]; 1× dose) was “increase acetate production” and the propionate production ([3]; 1× dose) was “increase propionate production”. The “total SCFAs production” value ([3]; 1× dose) was “increase total SCFAs production”, the acetate production ([3]; 5× dose) was “increase acetate production” and the “IL-8 production by HT29 cells” value ([4]; 0.2× dose) was “increase IL-8 production”. The “MIP3A-CCL20 production by HT29 cells” value ([4]; 0.2× dose) was “increase MIP3A-CCL20 production”, the “IL-8 production by HT29 cells” value ([4]; 1× dose) was “increase IL-8 production” and the “MIP3A-CCL20 production by HT29 cells” value ([4]; 1× dose) was “increase MIP3A-CCL20 production”. For the same molecule, the “GROa-CXCL1 production by HT29 cells” value ([4]; 5× dose) was “increase GROa-CXCL1 production”, the “IL-8 production by HT29 cells” value ([4]; 5× dose) was “increase IL-8 production” and the “MIP3A-CCL20 production by HT29 cells” value ([4]; 5× dose) was “increase MIP3A-CCL20 production”.
